Results as given in US8592403B2, “Diazepine and diazocane compounds as MC4 agonists” (Pfizer Limited, priority 2008, dated 2013).

Experiments:
MC4 receptor = MC4 receptor (Homo sapiens, UniProt P32245); assay: MC4 EC50 functional potency (protocol E of US2005/0176772 / WO 2005/077935); type: cell-based
Procedure: The compounds of formula (I) of the present invention have utility as MCR4 agonists in the treatment of various disease states.
MC5 and MC4 EC50 activity was determined as described by assay protocols D and E, respectively, in US2005/0176772 (pages 28-30).

MC4 receptor (MC4R) = target: T1, MC4 receptor (MC4R) (Homo sapiens, UniProt P32245); assay: Nle4, D-Phe7-α-MSH inhibition at the MC4 receptor (competition binding, SPA, CHO-CRE MC4R membranes)
T1 construct: expressed in transfected cells; host or cells: CHO-CRE MC4R cells (membranes)
Text: Nle4, D-Phe7-α-MSH Inhibition at the MC4 Receptor
(§1) Nle4, D-Phe7-α-MSH is a stable analogue of melanocyte-stimulating hormone (MSH), which is an agonist at the MC4 receptor (MC4R). Compounds can be evaluated for their ability to inhibit Nle4, D-Phe7-α-MSH binding to membranes from cells expressing the MC4R using a competition binding assay versus [^125I] Nle4, D-Phe7-α-MSH.
Cells expressing the MC4R were subject to homogenisation and the membrane fragment isolated by differential centrifugation. CHO-CRE MC4R cell membranes were coupled to PVT-PEI-WGA SPA Beads type A for 2 hours, spun at 1000 RPM for 5 min and suspended to a concentration of 300 ug bead/ml (0.15 ug membrane, 15 ug bead per well). Bead/membrane mix was incubated with 0.06 nM [^125I] Nle4, D-Phe7-α-MSH and 11 half-log concentrations of competitor ligand, in duplicate, in a total volume of 50 μl buffer per well (25 mM HEPES, 1 mM MgCl2, 2.5 mM CaCl2, 1% Pluronic F68, 1 complete EDTA protease inhibitor tablet/50 ml pH7). Non-specific binding was determined by the inclusion of 100 nM SHU9119. The reaction was initiated by the addition of bead/membranes and plates were incubated at room temperature for 12 hours (the first hour on a plate shaker), after which the amount of radioactivity present was determined using a Wallac plate counter. Ki values were determined by data analysis using appropriate software.

MC3 receptor (MC3R) = target: T2, MC3 receptor (MC3R) (Homo sapiens, UniProt P41968); assay: Nle4, D-Phe7-α-MSH inhibition at the MC3 receptor (competition binding, SPA, CHO-CRE MC3R membranes)
T2 construct: expressed in transfected cells; host or cells: CHO-CRE MC3R cells (membranes)
Text: Nle4, D-Phe7-α-MSH Inhibition at the MC3 Receptor
as §1, with “MC3” for “MC4”, “(MC3R).” for “(MC4R).”, “MC3R” for “MC4R”
Cells expressing the MC3R were subject to homogenisation and the membrane fragment isolated by differential centrifugation. CHO-CRE MC3R cell membranes were coupled to PVT-PEI-WGA SPA Beads type A for 2 hours, spun at 1000 RPM for 5 mins and suspended to a final assay concentration of 800 ug bead/ml (1.2 ug membrane, 40 ug bead per well). Bead/membrane mix was incubated with 0.06 nM [^125I] Nle4, D-Phe7-α-MSH and 11 half-log concentrations of competitor ligand, in duplicate, in a total volume of 50 μl buffer per well (25 mM HEPES, 1 mM MgCl2, 2.5 mM CaCl2, 1% Pluronic F68, 1 complete EDTA protease inhibitor tablet/50 ml pH7). Non-specific binding was determined by the inclusion of 100 nM SHU9119. The reaction was initiated by the addition of bead/membranes and plates were incubated at room temperature for 12 hours (the first hour on a plate shaker), after which the amount of radioactivity present was determined using a Wallac plate counter. Ki values were determined by data analysis using appropriate software.

CYP3A4 = target: T3, CYP3A4 (Homo sapiens, UniProt P08684); assay: High density DDI 3 μM cocktail screen in human liver microsomes, midazolam probe; type: in vitro ADME; conditions: human, liver microsomes, probe midazolam, read-out: % inhibition 3A4 @ 3 μM
T3 construct: utilizes human liver microsomes together with isoform-specific clinical drug probes; from tissue; host or cells: human liver microsomes
How it was run: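 Pooled human liver microsomes incubated with isoform-specific clinical probe substrates as a cocktail (midazolam for CYP3A4), with or without test compound at 3 μM. Metabolite formation followed over time by LC-MS/MS. Inhibition expressed as a single-point percentage.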

[1] = In vitro metabolism rate determination, human liver microsome (HLM) assay; type: in vitro ADME; conditions: human, liver microsomes, read-out: HLM: Clint, app
How it was run: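 Human liver microsomes at 0.5 nmol cytochrome P450/ml with 1 μM substrate, pre-warmed 5 min at 37° C, reaction started with NADP; samples taken 0–60 min and terminated. Substrate loss measured; first-order rate constant from log-linear regression converted to half-life or Clint (μl/min/mg protein).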

T1 sequence (P32245 whole entry): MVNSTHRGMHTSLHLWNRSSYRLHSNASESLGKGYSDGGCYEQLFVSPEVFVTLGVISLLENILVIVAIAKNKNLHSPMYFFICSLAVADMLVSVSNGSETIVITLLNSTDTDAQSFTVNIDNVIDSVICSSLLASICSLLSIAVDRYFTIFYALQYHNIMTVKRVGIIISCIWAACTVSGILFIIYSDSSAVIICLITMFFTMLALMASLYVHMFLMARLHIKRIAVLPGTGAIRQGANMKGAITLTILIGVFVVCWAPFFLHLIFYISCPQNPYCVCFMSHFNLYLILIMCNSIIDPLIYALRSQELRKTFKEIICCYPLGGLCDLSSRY
Chain of MC4 receptor (P32245 whole entry): as above
T2 sequence (P41968 whole entry): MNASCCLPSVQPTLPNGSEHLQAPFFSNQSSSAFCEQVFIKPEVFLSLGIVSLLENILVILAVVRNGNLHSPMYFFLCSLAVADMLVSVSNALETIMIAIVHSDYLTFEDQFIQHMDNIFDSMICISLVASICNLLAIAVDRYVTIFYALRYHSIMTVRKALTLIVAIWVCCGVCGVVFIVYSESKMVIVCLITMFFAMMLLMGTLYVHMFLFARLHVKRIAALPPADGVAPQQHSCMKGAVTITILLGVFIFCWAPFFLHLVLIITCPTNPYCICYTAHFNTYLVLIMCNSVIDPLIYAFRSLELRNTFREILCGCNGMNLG
T3 sequence (P08684 whole entry, canonical isoform): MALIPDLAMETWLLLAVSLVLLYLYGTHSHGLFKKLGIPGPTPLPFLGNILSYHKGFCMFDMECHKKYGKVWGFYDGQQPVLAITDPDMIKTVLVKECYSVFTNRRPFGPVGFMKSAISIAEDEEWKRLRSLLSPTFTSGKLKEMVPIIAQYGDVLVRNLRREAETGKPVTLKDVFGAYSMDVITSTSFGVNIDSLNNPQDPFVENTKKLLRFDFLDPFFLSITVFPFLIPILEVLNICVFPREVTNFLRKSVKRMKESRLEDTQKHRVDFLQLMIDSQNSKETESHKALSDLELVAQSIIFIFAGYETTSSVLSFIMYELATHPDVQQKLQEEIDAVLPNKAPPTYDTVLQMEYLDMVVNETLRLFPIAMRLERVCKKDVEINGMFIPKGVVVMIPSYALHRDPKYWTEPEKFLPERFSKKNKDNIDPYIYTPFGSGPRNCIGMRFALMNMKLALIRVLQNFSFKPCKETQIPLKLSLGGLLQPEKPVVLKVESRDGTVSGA

| EC50 (MC4 receptor) [nM] | Ki (MC4 receptor (MC4R)) [nM] | Ki (MC3 receptor (MC3R)) [nM] | inhibition at 3 µM (CYP3A4) [%] | microsomal CLint at 1 μM [1] [µL/min/mg] | Compound |
| --- | --- | --- | --- | --- | --- |
| 60.6 | 5180 | 19400 | 47 | 66 | COC(=O)N1CCN(C(=O)[C@@H]2CN(C(C)(C)C)C[C@H]2c2ccc(F)cc2F)CCCC1c1ccccc1 (mixture of isomers) [Example 82] |
| 32.1 | 1690 | 8110 | 29 | 23 | COC(=O)N1CCN(C(=O)[C@@H]2CN(C(C)(C)C)C[C@H]2c2ccc(F)cc2F)CCCC1c1ccc(Cl)cc1 (mixture of isomers) [Example 83] |
| 274 | 1770 | 17900 | 33.5 | 32.4 | COc1ccc([C@@H]2CN(C(C)(C)C)C[C@H]2C(=O)N2CCCC(c3ccc(Cl)cc3)N(S(C)(=O)=O)CC2)c(F)c1 (mixture of isomers) [Example 92] |
| 157 | 1620 | 3720 | 63 | 247 | COC(=O)N1CCN(C(=O)[C@@H]2CN(C(=O)OC(C)(C)C)C[C@H]2c2ccc(F)cc2F)CCCC1c1ccccc1 (mixture of isomers) [Example 97] |
| 18 | 583 | 9080 | 48 | 69.2 | CCCC(=O)N1CCN(C(=O)[C@@H]2CN(C(C)(C)C)C[C@H]2c2ccc(F)cc2F)CCCC1c1ccccc1 (mixture of isomers) [Example 104, 1-{[(3S,4R)-1-tert-butyl-4-(2,4-difluorophenyl)pyrrolidin-3-yl]carbonyl}-4-butyryl-5-phenyl-1,4-diazocane] |
| 36.1 | 92.2 | 571 | 37.5 | 42 | COc1ccc([C@@H]2CN(c3ccc(C#N)nn3)C[C@H]2C(=O)N2CCCC(c3ccc(Cl)cc3)N(S(C)(=O)=O)CC2)c(F)c1 (mixture of isomers) [Example 105, 6-[(3S,4R)-3-{[5-(4-chlorophenyl)-4-(methylsulfonyl)-1,4-diazocan-1-yl]carbonyl}-4-(2-fluoro-4-methoxyphenyl)pyrrolidin-1-yl]pyridazine-3-carbonitrile] |
| 27.7 | 96.4 | 683 | 55.5 | 47 | COC(=O)N1CCN(C(=O)[C@@H]2CN(c3ccc(Cl)nn3)C[C@H]2c2ccc(OC)cc2F)CCCC1c1ccc(Cl)cc1 (mixture of isomers) [Example 107, Methyl 8-(4-chlorophenyl)-4-{[(3S,4R)-1-(6-chloropyridazin-3-yl)-4-(2-fluoro-4-methoxyphenyl)pyrrolidin-3-yl]carbonyl}-1,4-diazocane-1-carboxylate] |
| 3.38 | 17.4 | 404 | 65.5 | 15 | COC(=O)N1CCN(C(=O)[C@@H]2CN(c3ccc(=O)[nH]n3)C[C@H]2c2ccc(OC)cc2F)CCCC1c1ccc(Cl)cc1 (mixture of isomers) [Example 112, methyl 8-(4-chlorophenyl)-4-{[(3S,4R)-4-(2-fluoro-4-methoxyphenyl)-1-(6-oxo-1,6-dihydropyridazin-3-yl)pyrrolidin-3-yl]carbonyl}-1,4-diazocane-1-carboxylate] |
| 3.6 | 24.3 | 573 | 75 | 12 | COC(=O)N1CCN(C(=O)[C@@H]2CN(c3ccc(=O)n(C)n3)C[C@H]2c2ccc(OC)cc2F)CCCC1c1ccc(Cl)cc1 (mixture of isomers) [Example 116] |
| 14.7 | 68.4 | 942 | 66.5 | 24 | COc1ccc([C@@H]2CN(c3ccc(=O)[nH]n3)C[C@H]2C(=O)N2CCCC(c3ccc(Cl)cc3)N(S(C)(=O)=O)CC2)c(F)c1 (mixture of isomers) [Example 111, 6-[(3S,4R)-3-{[5-(4-chlorophenyl)-4-(methylsulfonyl)-1,4-diazocan-1-yl]carbonyl}-4-(2-fluoro-4-methoxyphenyl)pyrrolidin-1-yl]pyridazin-3(2H)-one] |
| 15.7 | 53.9 | 1090 | 58.2 | 22.7 | COc1ccc([C@@H]2CN(c3ccc(=O)n(C)n3)C[C@H]2C(=O)N2CCCC(c3ccc(Cl)cc3)N(S(C)(=O)=O)CC2)c(F)c1 (mixture of isomers) [Example 115, 6-[(3S,4R)-3-{[5-(4-chlorophenyl)-4-(methylsulfonyl)-1,4-diazocan-1-yl]carbonyl}-4-(2-fluoro-4-methoxyphenyl)pyrrolidin-1-yl]-2-methylpyridazin-3(2H)-one] |
| 12.7 | 50.5 | 1300 | 44.3 | 24.8 | COc1ccc([C@@H]2CN(c3ccc(=O)[nH]n3)C[C@H]2C(=O)N2CCCC(c3ccc(Cl)cc3)N(S(C)(=O)=O)CC2)c(F)c1 (single isomer, unassigned) [Example 113] |
| 6.4 | 28.5 | 250 | 66.5 | 38 | COC(=O)N1CCN(C(=O)[C@@H]2CN(c3ccc(C#N)nn3)CC2c2ccc(OC)cc2F)CCCC1c1ccc(Cl)cc1 (stereo in doubt) [Example 106, methyl 8-(4-chlorophenyl)-4-{[(3S,4S)-4-(2-fluoro-4-methoxyphenyl)-1-(6-cyanopyridazin-3-yl)pyrrolidin-3-yl]carbonyl}-1,4-diazocane-1-carboxylate] |
| 23.2 | 226 | 1680 | 80.4 | 17.4 | CC(=O)N1CCN(C(=O)[C@@H]2CN(c3ccc4nncn4n3)C[C@H]2c2ccc(Cl)cn2)CCC[C@@H]1c1ccc(Cl)cc1 [Example 5] |
| 52.1 | 1010 | 11500 | 23.9 | 17 | CC(=O)N1CCN(C(=O)[C@@H]2CN(C(C)(C)C)C[C@H]2c2ccc(F)cc2F)CCC[C@H]1c1ccc(Cl)cc1 [Example 8] |
| 52.8 | 1530 | 12600 | 29.1 | 44.7 | COCC(=O)N1CCN(C(=O)[C@@H]2CN(C(C)(C)C)C[C@H]2c2ccc(F)cc2F)CCC[C@H]1c1ccc(Cl)cc1 [Example 9] |
| 32.8 | 807 | 4150 | 34 | 17 | CC(C)(C)N1C[C@@H](C(=O)N2CCC[C@@H](c3ccc(Cl)cc3)N(C(=O)CC(F)(F)F)CC2)[C@H](c2ccc(F)cc2F)C1 [Example 12] |
| 13.8 | 366 | 5000 | 48.8 | 37.8 | CCCC(=O)N1CCN(C(=O)[C@@H]2CN(C(C)(C)C)C[C@H]2c2ccc(F)cc2F)CCC[C@H]1c1ccc(Cl)cc1 [Example 13] |
